One assay deals with HT-29 tumor cells. The experiment in a line: Anti-proliferative activity, SRB assay. It is filed as cell-based, human. The note with it: Homo sapiens, HT-29, 72 h, 72 hours exposure, read-out: CELLULAR IC50 HT-29. In outline: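 Cells at 3,000-15,000/well, plated 24 h before compound, exposed to a concentration range for 72 hours. Proliferation measured by SRB staining after cold TCA fixation, absorbance at OD570; IC50 estimated from % inhibition versus DMSO-treated cells.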
On the technique in general: Sulforhodamine B stains cellular protein and so reports cell mass.

The target in another assay is B-Raf delta1-415 (Homo sapiens, UniProt P15056). The experiment in a line: B-Raf kinase inhibition (MAPH filter plate, 33P-ATP, MEK1 substrate). The note with it: read-out: Biochemical IC50 B-Raf. In outline: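 Radiometric filter-binding assay with B-Raf delta1-415 at a level giving 50% turnover, MEK1 substrate and 33P-ATP (12.5 μCi/ml) in 20 mM Mops pH 7.0 with Mg/Mn, 1 h at room temperature. Inhibitor dilution series from 10 μM; EDTA-stopped reactions captured on phosphocellulose filters, counted by scintillation for IC50.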
Sequence of B-Raf delta1-415 (P15056 416-766): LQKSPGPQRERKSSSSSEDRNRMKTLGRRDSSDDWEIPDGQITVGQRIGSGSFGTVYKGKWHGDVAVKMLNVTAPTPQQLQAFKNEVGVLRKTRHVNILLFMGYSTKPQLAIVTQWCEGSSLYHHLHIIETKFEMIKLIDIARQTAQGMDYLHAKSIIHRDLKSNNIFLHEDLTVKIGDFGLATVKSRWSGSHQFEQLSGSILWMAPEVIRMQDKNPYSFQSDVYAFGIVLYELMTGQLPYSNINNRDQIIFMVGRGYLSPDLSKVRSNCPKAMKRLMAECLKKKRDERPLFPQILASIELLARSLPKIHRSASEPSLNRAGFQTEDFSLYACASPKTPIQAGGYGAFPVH

By IC50 is commonly meant the point on the concentration scale where inhibition reaches its midpoint.

SMILES strings stand for the structures.

Regarding `COn1c(=O)c(-c2c(Cl)cccc2Cl)cc2cnc(Nc3ccc(S(=O)(=O)CCCO)cc3)nc21` [Compound 160, 6-(2,6-Dichlorophenyl)-2-(4-(3-hydroxypropyl)sulfonylphenyl)-amino-8-methoxy-pyrido[2,3-d]pyrimidin-7-one], the IC50 with HT-29 tumor cells was less than 1 µM; on B-Raf delta1-415, less than 0.1 µM.

With `COn1c(=O)c(-c2c(Cl)cccc2Cl)cc2cnc(Nc3cccc(S(C)(=N)=O)c3)nc21` (stereo not shown) [Compound 161, 6-(2,6-Dichlorophenyl)-8-methoxy-2-(3-methyliminosulfonylphenyl)-amino-pyrido[2,3-d]pyrimidin-7-one], the IC50 with HT-29 tumor cells is less than 1 µM; at B-Raf delta1-415, less than 0.1 µM.

Consider `COC(=O)c1ccc(Nc2ncc3cc(-c4c(Cl)cccc4Cl)c(=O)n(OC)c3n2)cc1` [Compound 162, 6-(2,6-Dichlorophenyl)-2-(4-methoxycarbonylphenyl)-amino-8-methoxy-pyrido[2,3-d]pyrimidin-7-one], for which the IC50 is less than 1 µM with HT-29 tumor cells and greater than 1 µM at B-Raf delta1-415.

Consider `COn1c(=O)c(-c2c(Cl)cccc2Cl)cc2cnc(Nc3cc(C(=O)N4CCN(C)CC4)n(C)c3)nc21` [Compound 163, 6-(2,6-Dichlorophenyl)-8-methoxy-2-(5-(4-methylpiperazino)carbonyl-1-methyl-pyrrol-3-yl)-amino-pyrido[2,3-d]pyrimidin-7-one], for which the IC50 was less than 1 µM in the assay on HT-29 tumor cells and less than 0.5 µM on B-Raf delta1-415.

For `O=c1c(-c2c(F)cccc2Cl)cc2cnc(Nc3ccccc3)nc2n1OCC1CCOCC1` [Compound 164, 6-(2-Chloro-6-fluorophenyl)-2-phenylamino-8-(tetrahydropyran-4-ylmethyl)oxy-pyrido[2,3-d]pyrimidin-7-one], the IC50 in the assay with HT-29 tumor cells was less than 1 µM; at B-Raf delta1-415, greater than 1 µM.

`O=c1c(-c2c(Cl)cccc2Cl)cc2cnc(Nc3ccccc3)nc2n1OCc1cccnc1` [Compound 165, 6-(2,6-Dichlorophenyl)-2-phenylamino-8-(pyrid-3-ylmethyl)oxy-pyrido[2,3-d]pyrimidin-7-one]: the IC50 is less than 1 µM with HT-29 tumor cells and less than 0.5 µM at B-Raf delta1-415.

In the case of `COn1c(=O)c(-c2c(Cl)cccc2Cl)cc2cnc(Nc3ccc(CN4CCN(C(C)C)CC4)cc3)nc21` [Compound 166], the figures for the IC50 in the assay on HT-29 tumor cells and at B-Raf delta1-415 were less than 1 µM and less than 0.5 µM, respectively.

With `CCN(CC)Cc1ccc(Nc2ncc3cc(-c4c(Cl)cccc4Cl)c(=O)n(OC)c3n2)cc1` [Compound 167, 6-(2,6-Dichlorophenyl)-2-(4-diethylaminomethylphenyl)-amino-8-methoxy-pyrido[2,3-d]pyrimidin-7-one], the concentration for half-maximal inhibition (IC50) in the assay with HT-29 tumor cells is less than 1 µM; on B-Raf delta1-415, less than 0.5 µM.

Regarding `COn1c(=O)c(-c2c(Cl)cccc2Cl)cc2cnc(Nc3ccc(CN4CC(O)C4)cc3)nc21` [Compound 168], the IC50 with HT-29 tumor cells was less than 1 µM; at B-Raf delta1-415, less than 0.5 µM.

`COn1c(=O)c(-c2c(Cl)cccc2Cl)cc2cnc(Nc3ccc(CN4CCC[C@H]4CO)cc3)nc21` [Compound 169, 6-(2,6-Dichlorophenyl)-2-(4-(2-(S)-hydroxymethyl-pyrrolidinomethyl)phenyl)-amino-8-methoxy-pyrido[2,3-d]pyrimidin-7-one]: the 50% inhibitory concentration (IC50) is less than 1 µM in the assay on HT-29 tumor cells and less than 0.5 µM at B-Raf delta1-415.

For the molecule `COCCOn1c(=O)c(-c2c(Cl)cccc2Cl)cc2cnc(Nc3cc(C(=O)N(C)CCOC)n(C)c3)nc21` [Compound 170, 6-(2,6-Dichlorophenyl)-8-(2-methoxyethyl)oxy-2-(5-N-(2-methoxyethyl)-N-methyl-aminocarbonyl-1-methyl-pyrrol-3-yl)-amino-pyrido[2,3-d]pyrimidin-7-one], the IC50 in the assay with HT-29 tumor cells was less than 1 µM; on B-Raf delta1-415, less than 0.5 µM.

On to `CCOn1c(=O)c(-c2c(Cl)cccc2Cl)cc2cnc(Nc3cc(C(=O)N(C)CCOC)n(C)c3)nc21` [Compound 171, 6-(2,6-Dichlorophenyl)-8-ethoxy-2-(5-N-(2-methoxyethyl)-N-methyl-aminocarbonyl-1-methyl-pyrrol-3-yl)-amino-pyrido[2,3-d]pyrimidin-7-one], for which the values for the IC50 in the assay on HT-29 tumor cells and on B-Raf delta1-415 were less than 1 µM and less than 0.5 µM, respectively.

On to `O=c1c(-c2c(F)cccc2Cl)cc2cnc(Nc3ccc(N4CCOCC4)cc3)nc2n1OCC1CCC1` [Compound 172], for which the IC50 in the assay with HT-29 tumor cells is less than 1 µM; at B-Raf delta1-415, less than 0.5 µM.

As for `O=c1c(-c2c(F)cccc2Cl)cc2cnc(Nc3ccc(N4CCOCC4)cc3)nc2n1OCC1CCCC1` [Compound 173], the values for the IC50 with HT-29 tumor cells and on B-Raf delta1-415 were less than 1 µM and less than 0.5 µM, respectively.

Consider `COn1c(=O)c(-c2c(Cl)cccc2Cl)cc2cnc(Nc3ccccc3)nc21` [Compound 174, 6-(2,6-Dichlorophenyl)-8-methoxy-2-phenylamino-pyrido[2,3-d]pyrimidin-7-one], for which the half-inhibitory concentration (IC50) with HT-29 tumor cells and at B-Raf delta1-415 was less than 1 µM throughout.

In the case of `COn1c(=O)c(-c2c(Cl)cccc2Cl)cc2cnc(Nc3ccc(Cn4cnnc4)cc3)nc21` [Compound 175, 2-(4-(1,3,4-triazol-1-yl)methylphenyl)-amino-6-(2,6-dichlorophenyl)-8-methoxy-pyrido[2,3-d]pyrimidin-7-one], the values for the IC50 in the assay with HT-29 tumor cells and at B-Raf delta1-415 were less than 1 µM and less than 0.5 µM, respectively.

For `COCCN(C)C(=O)c1cc(Nc2ncc3cc(-c4c(Cl)cccc4Cl)c(=O)n(OCC4CC4)c3n2)cn1C` [Compound 176, 6-(2,6-Dichlorophenyl)-8-cyclopropylmethyloxy-2-(5-N-(2-methoxyethyl)-N-methyl-aminocarbonyl-1-methyl-pyrrol-3-yl)-amino-pyrido[2,3-d]pyrimidin-7-one], the values for the IC50 with HT-29 tumor cells and on B-Raf delta1-415 were less than 1 µM and less than 0.5 µM, respectively.

On to `COCCN(C)C(=O)c1cc(Nc2ncc3cc(-c4c(Cl)cccc4Cl)c(=O)n(OCC4CCOCC4)c3n2)cn1C` [Compound 177, 6-(2,6-dichlorophenyl)-2-(5-N-(2-methoxyethyl)-N-methyl-aminocarbonyl-1-methyl-pyrrol-3-yl)-amino-8-(tetrahydropyran-4-ylmethyl)oxy-pyrido[2,3-d]pyrimidin-7-one], for which the IC50 with HT-29 tumor cells was less than 1 µM; on B-Raf delta1-415, less than 0.5 µM.

As for `COn1c(=O)c(-c2c(Cl)cccc2Cl)cc2cnc(Nc3ccc(CNCCO)cc3)nc21` [Compound 178, 2-(4-(2-hydroxyethylamino)methyl-phenyl)-amino-6-(2,6-dichlorophenyl)-8-methoxy-pyrido[2,3-d]pyrimidin-7-one], the IC50 with HT-29 tumor cells is less than 1 µM; at B-Raf delta1-415, less than 0.5 µM.

Regarding `COn1c(=O)c(-c2c(Cl)cccc2Cl)cc2cnc(Nc3ccc(CN4CC[C@@H](O)C4)cc3)nc21` [Compound 179, 6-(2,6-Dichlorophenyl)-2-(4-(3-(R)-hydroxypyrrolidinomethyl)phenyl)-amino-8-methoxy-pyrido[2,3-d]pyrimidin-7-one], the figures for the IC50 in the assay with HT-29 tumor cells and on B-Raf delta1-415 were less than 1 µM and less than 0.1 µM, respectively.

Turning to `COn1c(=O)c(-c2c(Cl)cccc2Cl)cc2cnc(Nc3ccc(CN4CC[C@H](O)C4)cc3)nc21` [Compound 180, 6-(2,6-Dichlorophenyl)-2-(4-(3-(S)-hydroxypyrrolidinomethyl)phenyl)-amino-8-methoxy-pyrido[2,3-d]pyrimidin-7-one], the IC50 in the assay with HT-29 tumor cells is less than 1 µM; on B-Raf delta1-415, less than 0.1 µM.

Regarding `COn1c(=O)c(-c2c(Cl)cccc2Cl)cc2cnc(Nc3cccc(CN4CC[C@H](O)C4)c3)nc21` [Compound 181, 6-(2,6-Dichlorophenyl)-2-(3-(3-(S)-hydroxypyrrolidinomethyl)phenyl)-amino-8-methoxy-pyrido[2,3-d]pyrimidin-7-one], the IC50 is less than 1 µM in the assay on HT-29 tumor cells and less than 0.5 µM on B-Raf delta1-415.

As for `COn1c(=O)c(-c2c(Cl)cccc2Cl)cc2cnc(Nc3cccc(CN4CC[C@@H](O)C4)c3)nc21` [Compound 182, 6-(2,6-Dichlorophenyl)-2-(3-(3-(R)-hydroxypyrrolidinomethyl)phenyl)-amino-8-methoxy-pyrido[2,3-d]pyrimidin-7-one], the 50% inhibitory concentration (IC50) was less than 1 µM in the assay on HT-29 tumor cells and less than 0.5 µM on B-Raf delta1-415.

For `COn1c(=O)c(-c2c(Cl)cccc2Cl)cc2cnc(Nc3cccc(CN4CCC(F)(F)C4)c3)nc21` [Compound 183, 6-(2,6-Dichlorophenyl)-2-(3-(3,3-difluoropyrrolidinomethyl)phenyl)-amino-8-methoxy-pyrido[2,3-d]pyrimidin-7-one], the IC50 is less than 1 µM in the assay on HT-29 tumor cells and greater than 1 µM at B-Raf delta1-415.

Turning to `COn1c(=O)c(-c2c(Cl)cccc2Cl)cc2cnc(Nc3ccc(N4CCNCC4)cc3)nc21` [Compound 184, 6-(2,6-Dichlorophenyl)-8-methoxy-2-(4-piperazinophenyl)-amino-pyrido[2,3-d]pyrimidin-7-one], the IC50 in the assay with HT-29 tumor cells was less than 1 µM; on B-Raf delta1-415 it was less than 0.1 µM.

Turning to `COn1c(=O)c(-c2c(Cl)cccc2Cl)cc2cnc(Nc3cc(C(=O)N4CCNCC4)n(C)c3)nc21` [Compound 185, 6-(2,6-Dichlorophenyl)-8-methoxy-2-(5-piperazinocarbonyl-1-methyl-pyrrol-3-yl)-amino-pyrido[2,3-d]pyrimidin-7-one], the IC50 was less than 1 µM in the assay with HT-29 tumor cells and less than 0.1 µM at B-Raf delta1-415.

Consider `O=c1c(-c2c(Cl)cccc2Cl)cc2cnc(Nc3ccccc3)nc2n1OCC1CCOCC1` [Compound 186, 6-(2,6-Dichlorophenyl)-2-phenylamino-8-(tetrahydropyran-4-ylmethyl)oxy-pyrido[2,3-d]pyrimidin-7-one], for which the concentration for half-maximal inhibition (IC50) is less than 1 µM with HT-29 tumor cells and less than 0.5 µM at B-Raf delta1-415.

With `COn1c(=O)c(-c2c(Cl)cccc2Cl)cc2cnc(Nc3ccc(N4CCN(C(C)C)CC4)cc3)nc21` [Compound 187], the IC50 in the assay on HT-29 tumor cells is less than 1 µM; at B-Raf delta1-415, less than 0.5 µM.

`COCCN1CCN(C(=O)c2cc(Nc3ncc4cc(-c5c(Cl)cccc5Cl)c(=O)n(OC)c4n3)cn2C)CC1` [Compound 188, 6-(2,6-Dichlorophenyl)-8-methoxy-2-(5-(4-(2-methoxy)ethyl)piperazino-carbonyl-1-methyl-pyrrol-3-yl)-amino-pyrido[2,3-d]pyrimidin-7-one]: the IC50 is less than 1 µM with HT-29 tumor cells and less than 0.5 µM on B-Raf delta1-415.

The values above are taken from patent US8518958B2, “Pyrido [2,3-D] pyrimidines and their use as kinase inhibitors” (Forma Therapeutics, Inc., priority 2006, dated 2013).
